Measurements: the kinase profiling compilation of Christmann-Franck et al. (2016)
Each block holds one compound with its values, some of them ahead of it.

Assays:
Test in all cases: KINOMEscan competition binding
Conditions in all cases: compound 10.0 µM
ACVRL1 (human) = ACVRL1 (human) (UniProt P37023)
ADCK4 (human) = ADCK4 (human) (UniProt Q96D53)
AURKB (human) = AURKB (human) (UniProt Q96GD4)
AURKC (human) = AURKC (human) (UniProt Q9UQB9)
BMX (human) = BMX (human) (UniProt P51813)
CAMK1D (human) = CAMK1D (human) (UniProt Q8IU85)
CDK17 (human) = CDK17 (human) (UniProt Q00537)
CDK2 (human) = CDK2 (human) (UniProt P24941)
CDK5 (human) = CDK5 (human) (UniProt Q00535)
CIT (human) = CIT (human) (UniProt O14578)
CLK2 (human) = CLK2 (human) (UniProt P49760)
CSNK1A1L (human) = CSNK1A1L (human) (UniProt Q8N752)
CSNK2A2 (human) = CSNK2A2 (human) (UniProt P19784)
DAPK1 (human) = DAPK1 (human) (UniProt P53355)
DDR2 (human) = DDR2 (human) (UniProt Q16832)
DMPK (human) = DMPK (human) (UniProt Q09013)
[1] = tested on: EGFR (human), P00533 [G719C; 746-750 del]
[2] = tested on: EIF2AK4 KD2 (human), Q9P2K8 [S808G]
ERBB4 (human) = ERBB4 (human) (UniProt Q15303)
FGFR3 (human) = FGFR3 (human) (UniProt P22607)
ITK (human) = ITK (human) (UniProt Q08881)
LYN (human) = LYN (human) (UniProt P07948)
MAP2K3 (human) = MAP2K3 (human) (UniProt P46734)
MAP3K12 (human) = MAP3K12 (human) (UniProt Q12852)
MAP3K7 (human) = MAP3K7 (human) (UniProt O43318)
MARK3 (human) = MARK3 (human) (UniProt P27448)
MELK (human) = MELK (human) (UniProt Q14680)
MYLK3 (human) = MYLK3 (human) (UniProt Q32MK0)
PAK4 (human) = PAK4 (human) (UniProt O96013)
PDGFRA (human) = PDGFRA (human) (UniProt P16234)
PHKG2 (human) = PHKG2 (human) (UniProt P15735)
PIM1 (human) = PIM1 (human) (UniProt P11309)
PIM2 (human) = PIM2 (human) (UniProt Q9P1W9)
PIM3 (human) = PIM3 (human) (UniProt Q86V86)
PIP5K1A (human) = PIP5K1A (human) (UniProt Q99755)
PKN2 (human) = PKN2 (human) (UniProt Q16513)
PLK1 (human) = PLK1 (human) (UniProt P53350)
PRKAA1 (human) = PRKAA1 (human) (UniProt Q13131)
RIPK4 (human) = RIPK4 (human) (UniProt P57078)
SRPK3 (human) = SRPK3 (human) (UniProt Q9UPE1)
STK17B (human) = STK17B (human) (UniProt O94768)
WEE1 (human) = WEE1 (human) (UniProt P30291)

Chain of CLK2 (human) (P49760 whole entry, looked up): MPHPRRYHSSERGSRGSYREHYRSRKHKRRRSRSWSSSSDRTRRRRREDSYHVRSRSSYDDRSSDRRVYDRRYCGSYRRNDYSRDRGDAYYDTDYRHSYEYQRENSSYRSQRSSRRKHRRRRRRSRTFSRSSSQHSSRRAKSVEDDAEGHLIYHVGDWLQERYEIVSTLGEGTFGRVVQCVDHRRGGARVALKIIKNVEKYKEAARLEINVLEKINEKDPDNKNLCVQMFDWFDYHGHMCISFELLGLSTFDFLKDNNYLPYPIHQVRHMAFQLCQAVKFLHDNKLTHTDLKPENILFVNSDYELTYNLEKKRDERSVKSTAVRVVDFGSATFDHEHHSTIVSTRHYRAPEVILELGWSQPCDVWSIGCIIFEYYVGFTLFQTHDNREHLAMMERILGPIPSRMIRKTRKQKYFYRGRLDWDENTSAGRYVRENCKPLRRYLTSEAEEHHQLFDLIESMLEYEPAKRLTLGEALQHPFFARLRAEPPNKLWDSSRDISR
Chain of CSNK2A2 (human) (P19784 whole entry, looked up): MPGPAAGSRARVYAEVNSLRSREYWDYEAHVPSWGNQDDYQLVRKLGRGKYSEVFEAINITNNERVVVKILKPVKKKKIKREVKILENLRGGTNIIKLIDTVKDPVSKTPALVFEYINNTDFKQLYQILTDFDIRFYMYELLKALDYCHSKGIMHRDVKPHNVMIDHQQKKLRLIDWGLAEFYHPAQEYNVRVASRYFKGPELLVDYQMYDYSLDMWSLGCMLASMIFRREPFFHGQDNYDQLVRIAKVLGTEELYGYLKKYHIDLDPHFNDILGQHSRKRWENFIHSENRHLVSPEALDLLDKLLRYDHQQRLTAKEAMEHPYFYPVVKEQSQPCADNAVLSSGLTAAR
Chain of MAP2K3 (human) (P46734 whole entry, looked up): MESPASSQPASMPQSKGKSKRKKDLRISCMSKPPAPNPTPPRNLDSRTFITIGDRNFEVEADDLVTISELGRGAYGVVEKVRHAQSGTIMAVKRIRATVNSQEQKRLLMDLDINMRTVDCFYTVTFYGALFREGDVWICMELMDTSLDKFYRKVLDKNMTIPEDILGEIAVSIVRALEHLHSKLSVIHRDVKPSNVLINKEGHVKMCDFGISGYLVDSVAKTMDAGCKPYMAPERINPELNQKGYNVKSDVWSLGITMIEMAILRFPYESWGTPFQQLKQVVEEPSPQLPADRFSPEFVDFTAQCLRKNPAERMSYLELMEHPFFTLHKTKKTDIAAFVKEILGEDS
Chain of EIF2AK4 KD2 (human), Q9P2K8 [S808G] (Q9P2K8 whole entry S808G, looked up): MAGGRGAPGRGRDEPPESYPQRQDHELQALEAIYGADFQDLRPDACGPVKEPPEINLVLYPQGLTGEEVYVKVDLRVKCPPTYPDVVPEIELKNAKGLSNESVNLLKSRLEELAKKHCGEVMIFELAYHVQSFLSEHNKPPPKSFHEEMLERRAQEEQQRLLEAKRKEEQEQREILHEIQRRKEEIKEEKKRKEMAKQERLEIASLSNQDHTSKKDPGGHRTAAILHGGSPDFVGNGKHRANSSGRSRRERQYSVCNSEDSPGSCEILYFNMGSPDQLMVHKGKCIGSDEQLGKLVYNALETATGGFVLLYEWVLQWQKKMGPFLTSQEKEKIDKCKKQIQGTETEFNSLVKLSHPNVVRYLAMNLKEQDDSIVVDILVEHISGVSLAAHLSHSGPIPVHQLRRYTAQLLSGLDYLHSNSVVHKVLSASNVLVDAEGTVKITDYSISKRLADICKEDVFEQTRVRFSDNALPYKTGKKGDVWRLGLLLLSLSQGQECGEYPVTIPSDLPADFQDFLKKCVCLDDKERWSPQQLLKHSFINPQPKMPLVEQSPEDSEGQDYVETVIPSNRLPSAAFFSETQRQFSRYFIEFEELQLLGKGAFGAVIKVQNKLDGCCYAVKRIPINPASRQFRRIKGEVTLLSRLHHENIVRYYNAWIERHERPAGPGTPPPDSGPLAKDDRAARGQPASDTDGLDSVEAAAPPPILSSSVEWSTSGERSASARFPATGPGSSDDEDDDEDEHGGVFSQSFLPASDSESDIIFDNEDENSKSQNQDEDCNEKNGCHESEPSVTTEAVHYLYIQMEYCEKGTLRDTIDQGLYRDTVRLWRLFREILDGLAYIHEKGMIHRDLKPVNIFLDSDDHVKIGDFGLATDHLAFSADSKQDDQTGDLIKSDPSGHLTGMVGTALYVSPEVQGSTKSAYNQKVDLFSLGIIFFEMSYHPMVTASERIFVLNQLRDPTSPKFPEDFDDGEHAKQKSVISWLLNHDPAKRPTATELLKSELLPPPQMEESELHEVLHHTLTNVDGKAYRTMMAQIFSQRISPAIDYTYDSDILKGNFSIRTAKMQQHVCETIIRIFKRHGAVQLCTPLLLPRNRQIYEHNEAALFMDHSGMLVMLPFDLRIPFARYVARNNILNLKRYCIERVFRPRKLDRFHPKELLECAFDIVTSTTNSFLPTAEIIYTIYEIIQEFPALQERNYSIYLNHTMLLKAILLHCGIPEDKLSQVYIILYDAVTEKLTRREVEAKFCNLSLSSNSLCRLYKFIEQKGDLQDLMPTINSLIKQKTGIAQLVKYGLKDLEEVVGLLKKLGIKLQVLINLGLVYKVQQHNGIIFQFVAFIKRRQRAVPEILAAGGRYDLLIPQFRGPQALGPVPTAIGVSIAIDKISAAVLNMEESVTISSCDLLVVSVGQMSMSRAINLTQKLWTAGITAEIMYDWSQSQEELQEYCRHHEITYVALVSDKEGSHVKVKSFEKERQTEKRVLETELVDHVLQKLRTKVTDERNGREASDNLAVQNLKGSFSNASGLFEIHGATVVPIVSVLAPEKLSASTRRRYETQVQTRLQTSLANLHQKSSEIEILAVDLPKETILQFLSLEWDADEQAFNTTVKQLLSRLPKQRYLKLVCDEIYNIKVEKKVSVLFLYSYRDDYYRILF
Chain of STK17B (human) (O94768 whole entry, looked up): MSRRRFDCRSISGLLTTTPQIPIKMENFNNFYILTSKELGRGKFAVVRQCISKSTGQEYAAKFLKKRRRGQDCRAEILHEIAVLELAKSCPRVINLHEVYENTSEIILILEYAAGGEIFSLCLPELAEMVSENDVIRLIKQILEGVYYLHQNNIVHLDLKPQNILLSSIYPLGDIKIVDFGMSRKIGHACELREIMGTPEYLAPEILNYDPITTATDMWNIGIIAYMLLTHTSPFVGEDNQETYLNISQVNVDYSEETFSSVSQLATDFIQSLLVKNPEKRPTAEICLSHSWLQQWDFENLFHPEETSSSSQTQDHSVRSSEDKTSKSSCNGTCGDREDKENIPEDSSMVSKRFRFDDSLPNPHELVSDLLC
Chain of ACVRL1 (human) (P37023 whole entry, looked up): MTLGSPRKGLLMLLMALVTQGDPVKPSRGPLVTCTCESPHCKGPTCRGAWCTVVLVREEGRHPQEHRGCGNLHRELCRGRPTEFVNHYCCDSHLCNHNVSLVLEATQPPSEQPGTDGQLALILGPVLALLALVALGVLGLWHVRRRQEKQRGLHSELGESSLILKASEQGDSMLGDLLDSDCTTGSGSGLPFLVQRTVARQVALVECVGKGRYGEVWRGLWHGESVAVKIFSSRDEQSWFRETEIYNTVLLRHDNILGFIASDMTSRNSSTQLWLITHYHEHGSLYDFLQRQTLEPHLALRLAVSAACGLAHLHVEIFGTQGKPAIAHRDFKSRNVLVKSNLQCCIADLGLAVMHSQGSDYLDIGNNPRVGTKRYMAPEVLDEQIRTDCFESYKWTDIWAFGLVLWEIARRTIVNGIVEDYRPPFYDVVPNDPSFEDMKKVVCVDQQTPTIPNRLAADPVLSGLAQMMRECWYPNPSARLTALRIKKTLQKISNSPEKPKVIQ
Chain of CDK5 (human) (Q00535 whole entry, looked up): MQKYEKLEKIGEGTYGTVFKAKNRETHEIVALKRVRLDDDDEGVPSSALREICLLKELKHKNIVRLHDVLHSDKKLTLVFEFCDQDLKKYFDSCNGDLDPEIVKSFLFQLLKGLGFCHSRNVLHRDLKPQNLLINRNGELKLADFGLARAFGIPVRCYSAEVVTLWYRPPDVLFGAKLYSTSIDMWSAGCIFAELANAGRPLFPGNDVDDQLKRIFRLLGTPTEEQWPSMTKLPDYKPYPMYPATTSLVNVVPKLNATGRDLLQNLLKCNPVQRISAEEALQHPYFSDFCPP
Chain of AURKB (human) (Q96GD4 whole entry, looked up): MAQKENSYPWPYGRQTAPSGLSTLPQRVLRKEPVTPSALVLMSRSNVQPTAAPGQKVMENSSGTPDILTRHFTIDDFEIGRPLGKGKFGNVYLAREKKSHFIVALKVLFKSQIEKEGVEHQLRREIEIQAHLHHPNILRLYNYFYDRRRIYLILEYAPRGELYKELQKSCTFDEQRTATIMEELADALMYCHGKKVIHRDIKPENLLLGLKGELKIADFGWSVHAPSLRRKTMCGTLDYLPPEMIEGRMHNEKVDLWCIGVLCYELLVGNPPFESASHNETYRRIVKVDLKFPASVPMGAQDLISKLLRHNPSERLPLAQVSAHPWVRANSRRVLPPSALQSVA
Chain of DMPK (human) (Q09013 whole entry, looked up): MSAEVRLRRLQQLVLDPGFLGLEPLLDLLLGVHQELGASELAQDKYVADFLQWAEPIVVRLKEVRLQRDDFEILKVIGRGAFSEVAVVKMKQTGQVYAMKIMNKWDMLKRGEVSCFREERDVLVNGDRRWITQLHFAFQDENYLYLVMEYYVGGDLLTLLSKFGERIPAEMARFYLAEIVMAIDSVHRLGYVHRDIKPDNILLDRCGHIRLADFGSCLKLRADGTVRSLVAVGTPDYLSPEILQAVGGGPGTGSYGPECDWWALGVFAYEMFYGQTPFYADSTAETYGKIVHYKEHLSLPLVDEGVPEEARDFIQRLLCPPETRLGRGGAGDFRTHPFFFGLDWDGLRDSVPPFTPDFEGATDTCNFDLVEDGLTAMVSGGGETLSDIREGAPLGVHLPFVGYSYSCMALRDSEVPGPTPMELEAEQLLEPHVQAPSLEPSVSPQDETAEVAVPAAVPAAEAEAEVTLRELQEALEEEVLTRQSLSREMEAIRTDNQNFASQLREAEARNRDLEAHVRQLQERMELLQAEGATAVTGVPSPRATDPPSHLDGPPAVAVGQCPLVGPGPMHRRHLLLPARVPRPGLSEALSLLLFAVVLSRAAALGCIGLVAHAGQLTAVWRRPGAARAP

kinase still bound, per cent of control (ACVRL1 (human)): 98%
kinase still bound, per cent of control (ADCK4 (human)): 100%
kinase still bound, per cent of control (AURKB (human)): 74%
kinase still bound, per cent of control (AURKC (human)): 99%
kinase still bound, per cent of control (BMX (human)): 100%
kinase still bound, per cent of control (CAMK1D (human)): 100%
kinase still bound, per cent of control (CDK17 (human)): 100%
kinase still bound, per cent of control (CDK2 (human)): 98%
kinase still bound, per cent of control (CDK5 (human)): 100%
kinase still bound, per cent of control (CIT (human)): 100%
kinase still bound, per cent of control (CLK2 (human)): 96%
kinase still bound, per cent of control (CSNK1A1L (human)): 77%
kinase still bound, per cent of control (CSNK2A2 (human)): 78%
kinase still bound, per cent of control (DAPK1 (human)): 84%
kinase still bound, per cent of control (DDR2 (human)): 100%
kinase still bound, per cent of control (DMPK (human)): 100%
kinase still bound, per cent of control [1]: 100%
kinase still bound, per cent of control [2]: 100%
kinase still bound, per cent of control (ERBB4 (human)): 100%
kinase still bound, per cent of control (FGFR3 (human)): 100%
kinase still bound, per cent of control (ITK (human)): 100%
kinase still bound, per cent of control (LYN (human)): 94%
kinase still bound, per cent of control (MAP2K3 (human)): 84%
kinase still bound, per cent of control (MAP3K12 (human)): 87%
kinase still bound, per cent of control (MAP3K7 (human)): 89%
kinase still bound, per cent of control (MARK3 (human)): 100%
kinase still bound, per cent of control (MELK (human)): 99%
kinase still bound, per cent of control (MYLK3 (human)): 100%
kinase still bound, per cent of control (PAK4 (human)): 100%
kinase still bound, per cent of control (PDGFRA (human)): 100%
kinase still bound, per cent of control (PHKG2 (human)): 90%
kinase still bound, per cent of control (PIM1 (human)): 100%
kinase still bound, per cent of control (PIM2 (human)): 100%
kinase still bound, per cent of control (PIM3 (human)): 100%
kinase still bound, per cent of control (PIP5K1A (human)): 99%
kinase still bound, per cent of control (PKN2 (human)): 78%
kinase still bound, per cent of control (PLK1 (human)): 100%
kinase still bound, per cent of control (PRKAA1 (human)): 100%
kinase still bound, per cent of control (RIPK4 (human)): 96%
kinase still bound, per cent of control (SRPK3 (human)): 100%
kinase still bound, per cent of control (STK17B (human)): 100%
kinase still bound, per cent of control (WEE1 (human)): 100%
SMILES: CN1CCN(c2ccc(C(=O)Nc3ncc4c(n3)N(C)c3ccccc3C(=O)N4C)cc2)CC1

kinase still bound, per cent of control (ACVRL1 (human)): 99%
kinase still bound, per cent of control (ADCK4 (human)): 78%
kinase still bound, per cent of control (AURKB (human)): 56%
kinase still bound, per cent of control (AURKC (human)): 82%
kinase still bound, per cent of control (BMX (human)): 100%
kinase still bound, per cent of control (CAMK1D (human)): 71%
kinase still bound, per cent of control (CDK17 (human)): 85%
kinase still bound, per cent of control (CDK2 (human)): 92%
kinase still bound, per cent of control (CDK5 (human)): 74%
kinase still bound, per cent of control (CIT (human)): 85%
kinase still bound, per cent of control (CLK2 (human)): 78%
kinase still bound, per cent of control (CSNK1A1L (human)): 93%
kinase still bound, per cent of control (CSNK2A2 (human)): 52%
kinase still bound, per cent of control (DAPK1 (human)): 58%
kinase still bound, per cent of control (DDR2 (human)): 91%
kinase still bound, per cent of control (DMPK (human)): 100%
kinase still bound, per cent of control [1]: 82%
kinase still bound, per cent of control [2]: 82%
kinase still bound, per cent of control (ERBB4 (human)): 88%
kinase still bound, per cent of control (FGFR3 (human)): 100%
kinase still bound, per cent of control (ITK (human)): 81%
kinase still bound, per cent of control (LYN (human)): 100%
kinase still bound, per cent of control (MAP2K3 (human)): 39%
kinase still bound, per cent of control (MAP3K12 (human)): 86%
kinase still bound, per cent of control (MAP3K7 (human)): 81%
kinase still bound, per cent of control (MARK3 (human)): 91%
kinase still bound, per cent of control (MELK (human)): 70%
kinase still bound, per cent of control (MYLK3 (human)): 86%
kinase still bound, per cent of control (PAK4 (human)): 84%
kinase still bound, per cent of control (PDGFRA (human)): 87%
kinase still bound, per cent of control (PHKG2 (human)): 46%
kinase still bound, per cent of control (PIM1 (human)): 66%
kinase still bound, per cent of control (PIM2 (human)): 86%
kinase still bound, per cent of control (PIM3 (human)): 62%
kinase still bound, per cent of control (PIP5K1A (human)): 65%
kinase still bound, per cent of control (PKN2 (human)): 90%
kinase still bound, per cent of control (PLK1 (human)): 2.5%
kinase still bound, per cent of control (PRKAA1 (human)): 99%
kinase still bound, per cent of control (RIPK4 (human)): 95%
kinase still bound, per cent of control (SRPK3 (human)): 67%
kinase still bound, per cent of control (STK17B (human)): 100%
kinase still bound, per cent of control (WEE1 (human)): 100%
SMILES: COc1cc(N2CCN(C)CC2)ccc1Nc1ncc2c(n1)N(C)c1sccc1C(=O)N2C

kinase still bound, per cent of control (ACVRL1 (human)): 81%
kinase still bound, per cent of control (ADCK4 (human)): 84%
kinase still bound, per cent of control (AURKB (human)): 59%
kinase still bound, per cent of control (AURKC (human)): 55%
kinase still bound, per cent of control (BMX (human)): 99%
kinase still bound, per cent of control (CAMK1D (human)): 100%
kinase still bound, per cent of control (CDK17 (human)): 93%
kinase still bound, per cent of control (CDK2 (human)): 100%
kinase still bound, per cent of control (CDK5 (human)): 87%
kinase still bound, per cent of control (CIT (human)): 47%
kinase still bound, per cent of control (CLK2 (human)): 95%
kinase still bound, per cent of control (CSNK1A1L (human)): 100%
kinase still bound, per cent of control (CSNK2A2 (human)): 100%
kinase still bound, per cent of control (DAPK1 (human)): 64%
kinase still bound, per cent of control (DDR2 (human)): 100%
kinase still bound, per cent of control (DMPK (human)): 91%
kinase still bound, per cent of control [1]: 39%
kinase still bound, per cent of control [2]: 12%
kinase still bound, per cent of control (ERBB4 (human)): 62%
kinase still bound, per cent of control (FGFR3 (human)): 97%
kinase still bound, per cent of control (ITK (human)): 100%
kinase still bound, per cent of control (LYN (human)): 77%
kinase still bound, per cent of control (MAP2K3 (human)): 88%
kinase still bound, per cent of control (MAP3K12 (human)): 100%
kinase still bound, per cent of control (MAP3K7 (human)): 96%
kinase still bound, per cent of control (MARK3 (human)): 100%
kinase still bound, per cent of control (MELK (human)): 64%
kinase still bound, per cent of control (MYLK3 (human)): 100%
kinase still bound, per cent of control (PAK4 (human)): 94%
kinase still bound, per cent of control (PDGFRA (human)): 91%
kinase still bound, per cent of control (PHKG2 (human)): 6.8%
kinase still bound, per cent of control (PIM1 (human)): 46%
kinase still bound, per cent of control (PIM2 (human)): 100%
kinase still bound, per cent of control (PIM3 (human)): 75%
kinase still bound, per cent of control (PIP5K1A (human)): 47%
kinase still bound, per cent of control (PKN2 (human)): 100%
kinase still bound, per cent of control (PLK1 (human)): 99%
kinase still bound, per cent of control (PRKAA1 (human)): 87%
kinase still bound, per cent of control (RIPK4 (human)): 100%
kinase still bound, per cent of control (SRPK3 (human)): 76%
kinase still bound, per cent of control (STK17B (human)): 93%
kinase still bound, per cent of control (WEE1 (human)): 86%
SMILES: COc1cc(N2CCN(C)CC2)ccc1Nc1ncc2c(n1)Nc1ccccc1NC2=O
